Results from patent publication US20130274216A1 (priority 2012, published 2013).

Experiments:
[1] = test system: Fusarium conidia infected murine cornea; assay: In vivo murine fungal keratitis model, neutrophil infiltration of the infected cornea; design: species or system C57BL/6 mice; details: for neutrophil infiltration (neutrophils per 5 μm corneal section): 24 hours after infection, infected PBS or vehicle groups >200 neutrophils/section
Aspergillus flavus = type: in vivo, murine

Compound | neutrophil infiltration (neutrophils per 5 μm corneal section) ([1]; 0.1% w/v test group) [neutrophils/section] | neutrophil infiltration (neutrophils per 5 μm corneal section) ([1]; 1% w/v test group) [neutrophils/section] | neutrophil infiltration, effect in words ([1]; test groups vs infected PBS/vehicle groups, 24 hours, FIG. 2) | reduction in CFUs/eye (Aspergillus flavus; 72 hours after infection with Aspergillus, dosed qid for 48 hours, control approximately 15000 CFUs/eye, FIG. 3B) [%] | Aspergillus infection evaluated by RFP expression (Aspergillus flavus; fluorescence micrographs of murine corneas 72 hours after infection, FIG. 3A)
COc1ccc(Nc2nc(-c3cccs3)nc3cn[nH]c23)cc1OC [Compound 1] | < 100 | < 100 | dose-dependent reduction | – | –
C[C@@H]1C/C=C/C=C/C=C/C=C/[C@H](O[C@@H]2O[C@H](C)[C@@H](O)[C@H](N)[C@@H]2O)C[C@@H]2O[C@](O)(C[C@@H](O)C[C@H]3O[C@@H]3/C=C/C(=O)O1)C[C@H](O)[C@H]2C(=O)O [natamycin] | – | – | – | ~50 | suppressed
